Measured values from patent US11266626B2, “Reduction of ER-MAM-localized APP-C99 and methods of treating alzheimer's disease” (THE TRUSTEES OF COLUMBIA UNIVERSITY IN THE CITY OF NEW YORK, priority 2015, dated 2022).
“Also recorded” adds a separate entry of the source. Where a name gives a salt, the structure may show the parent alone.

Legend:
APP = conditions: cited from earlier work; for Aβ: literature
AD mice = conditions: cited from earlier work
PS-DKO cells [1] = experiment: Staining of lipid droplets with LipidTox Green; format: cell-based, mouse; conditions: BI 100 nM, desipramine 10 μM, GW4869 5 μM, 12-16 h, Gleevec 10 μM
Experimental: Quantification of total cholesterol and cholesteryl esters was performed using the Cholesterol/Cholesteryl Ester Quantitation kit from Calbiochem (428901). Staining of lipid droplets Staining of lipid droplets was performed using HCS LipidTox™ Deep Green neutral lipid stain (Invitrogen H34475) according to the manufacturer's instructions. Lipid droplet staining was quantified using ImageJ. The different values represent the product of the intensity and the area covered by the fluorescent signal above background in every cell examined.
Staining of lipid droplets was performed using HCS LipidTox™ Deep Green neutral lipid stain (Invitrogen H34475) according to the manufacturer's instructions. Lipid droplet staining was quantified using ImageJ. The different values represent the product of the intensity and the area covered by the fluorescent signal above background in every cell examined.

TRPML1 = TRPML1 (Homo sapiens, UniProt Q9GZU1); conditions: Shen, D. et al.; cited from earlier work
γ-secretase = conditions: A2A-AR antagonists; Lu, J. et al.; cited from earlier work
PS-DKO cells [2] = experiment: Seahorse analysis of mitochondrial respiration (OCR); format: cell-based, mouse; conditions: BI 100 nM, myriocin 5 μM, TAPI-1 5 μM, 12-16 h, Aβ40:Aβ42 10:1, 6 ng/ml
Experimental: (§1) Respirometry of cultured cells was performed using the XF24e Extracellular Flux Analyzer (Seahorse Bioscience). Oxygen consumption was measured in basal conditions (Seahorse media with 25 mM glucose and 2 mM pyruvate) and after the sequential addition of 1 μM oligomycin (Complex V inhibitor), 0.75 μM FCCP (uncoupler) and 1 μM rotenone/1 μM antimycin A (Complex I and Complex III inhibitors respectively).
(§2) Respirometry of cultured cells was performed using the XF24e Extracellular Flux Analyzer (Seahorse Bioscience). Oxygen consumption was measured in basal conditions (Seahorse media with 25 mM glucose and 2 mM pyruvate) and after the sequential addition of 1 μM oligomycin (complex V inhibitor), 0.75 μM FCCP (uncoupler), and 1 μM rotenone/1 μM antimycin A (complex I and complex III inhibitors, respectively). All results were averages of five or more biological replicates. Every biological replicate consisted of three technical replicates. For every technical replicate, we plated equal number of cells (25,000 cell/well when MEFs were used, and 50,000 cells/well when human primary fibroblasts were analyzed). The number of cells was also counted after every respirometry assay to correct for cell death. All oxygen consumption (OCR) data were normalized by the number of viable cells or by protein quantity when isolated mitochondria were used.

[3] = Ghanbarabadi et al.; cited from earlier work
Aβ42:Aβ40 ratio = Aβ42:Aβ40 ratio (ELISA); format: cell-based; conditions: PS-mutant cells, desipramine
Experimental: Detection of Aβ40/Aβ42 levels in cell media was performed by ELISA following manufacturer's instructions (WAKO ELISA kit 294-64701 for Aβ40 and 292-64501 for Aβ42).

[4] = system: mitochondrial respiratory supercomplexes; experiment: Supercomplex analysis (blue-native gels, in-gel activity and western blot); format: cell-based, mouse
Experimental: Analysis and quantification of mitochondrial respiratory complexes by western blot and enzymatic in-gel activity were carried out as previously reported (Acin-Perez et al., 2008)
Analysis and quantification of mitochondrial respiratory complexes by Western blot and enzymatic in-gel activity were carried out as described (Acin-Perez et al, 2008).

PS-DKO cells [5] = experiment: Lipidomic analyses of membranes; format: cell-based, mouse; conditions: PS-DKO cells; BI 100 nM or myriocin 5 μM
Experimental: (§3) Lipid extracts were prepared via chloroform-methanol extraction, spiked with appropriate internal standards, and analyzed using a 6490 Triple Quadrupole LC/MS system (Agilent Technologies, Santa Clara, Calif.) as described previously (6, 7). Glycerophospholipids and sphingolipids were separated with normal-phase HPLC using an Agilent Zorbax Rx-Sil column (inner diameter 2.1×100 mm) under the following conditions: mobile phase A (chloroform:methanol:1 M ammonium hydroxide, 89.9:10:0.1, v/v) and mobile phase B (chloroform:methanol:water:ammonium hydroxide, 55:39.9:5:0.1, v/v); 95% A for 2 min, linear gradient to 30% A over 18 min and held for 3 min, and linear gradient to 95% A over 2 min and held for 6 min. Quantification of lipid species was accomplished using multiple reaction monitoring (MRM) transitions that were developed in earlier studies (6) in conjunction with referencing of appropriate internal standards: ceramide d18:1/17:0 and sphingomyelin d18:1/12:0 (Avanti Polar Lipids, Alabaster, Ala.).
as §3, with “Lipids were extracted from equal amounts of material (30 μg protein/sample). Lipid extracts” for “Lipid extracts”, “described previously (Chan et al., 2012). Glycerophospholipids and” for “described previously (6, 7). Glycerophospholipids and”, “hydroxide, 89.9:10:0.1, v/v/v) and mobile” for “hydroxide, 89.9:10:0.1, v/v) and mobile”, “hydroxide, 55:39.9:5:0.1, v/v/v); 95% A” for “hydroxide, 55:39.9:5:0.1, v/v); 95% A”, “earlier studies (Chan et al., 2012) in conjunction” for “earlier studies (6) in conjunction”, “Alabaster, Ala.). Values are represented as mole fraction with respect to total lipid (% molarity)” for “Alabaster, Ala.).”
Lipids were extracted from equal amounts of material (30 μg protein/sample). Lipid extracts were prepared via chloroform-methanol extraction, spiked with appropriate internal standards, and analyzed using a 6490 Triple Quadrupole LC/MS system (Agilent Technologies, Santa Clara, Calif.) as described previously (Chan et al, 2012). Glycerophospholipids and sphingolipids were separated with normal-phase HPLC using an Agilent Zorbax Rx-Sil column (inner diameter 2.1×100 mm) under the following conditions: mobile phase A (chloroform:methanol:1 M ammonium hydroxide, 89.9:10:0.1, v/v/v) and mobile phase B (chloroform:methanol:water:ammonium hydroxide, 55:39.9:5:0.1, v/v/v/v); 95% A for 2 min, linear gradient to 30% A over 18 min and held for 3 min, and linear gradient to 95% A over 2 min and held for 6 min. Quantification of lipid species was accomplished using multiple reaction monitoring (MRM) transitions that were developed in earlier studies (Chan et al, 2012) in conjunction with referencing of appropriate internal standards: ceramide d18:1/17:0 and sphingomyelin d18:1/12:0 (Avanti Polar Lipids, Alabaster, Ala., USA). Values are represented as mole fraction with respect to total lipid (% molarity). For this, lipid mass (in moles) of any specific lipid is normalized by the total mass (in moles) of all the lipids measured (Chan et al, 2012). In addition, all of our results were further normalized by protein content.

[6] = system: WT MEFs and presenilin-mutant (PS-DKO) cells; experiment: Filipin staining of free cholesterol; format: cell-based, mouse; conditions: presenilin-mutant (PS-DKO) cells; CsA 100 nM; SSO 250 nM
Experimental: Cells were washed in PBS and fixed in 3% paraformaldehyde at room temperature for 1 h. After washing in PBS three times, samples were incubated in 1.5 mg/ml glycine in 1×PBS to quench the paraformaldehyde and then incubated in 0.05 mg/ml of filipin in PBS/10% FBS for 2 h at room temperature. Free cholesterol signal was visualized in by microscopy and quantified by ImageJ.

APP-DKO cells = experiment: Seahorse analysis of mitochondrial respiration (OCR); format: cell-based, mouse; conditions: WT and APP-DKO cells, Aβ42 oligomers 0, 5, 10 μM, 24 h, effect only at 10 μM
Experimental: as §1
(§4) To analyze the effect of Aβ addition, a mix of Aβ40/Aβ42 at a ratio 10:1 was added to the cultured cells to a final concentration of 6000 pg/ml for 24 h. For Aβ42 oligomer formation, 5 mM of Aβ42 in DMSO was diluted to 100 μM in ice-cold media, vortexed for 30 seconds, and incubated at 4° C. for 24 h. Aβ42 Oligomers were added to the cultured cells to a final concentration of 5 or 10 μM for 24 h.
as §2
as §4, with “6,000” for “6000”, “s,” for “seconds,”, “Aβ42 Oligomers were added to the cultured cells to a final concentration of 5 or 10 μM for 24 h.” left out

TRPML1, sequence (Q9GZU1 whole entry, species assumed): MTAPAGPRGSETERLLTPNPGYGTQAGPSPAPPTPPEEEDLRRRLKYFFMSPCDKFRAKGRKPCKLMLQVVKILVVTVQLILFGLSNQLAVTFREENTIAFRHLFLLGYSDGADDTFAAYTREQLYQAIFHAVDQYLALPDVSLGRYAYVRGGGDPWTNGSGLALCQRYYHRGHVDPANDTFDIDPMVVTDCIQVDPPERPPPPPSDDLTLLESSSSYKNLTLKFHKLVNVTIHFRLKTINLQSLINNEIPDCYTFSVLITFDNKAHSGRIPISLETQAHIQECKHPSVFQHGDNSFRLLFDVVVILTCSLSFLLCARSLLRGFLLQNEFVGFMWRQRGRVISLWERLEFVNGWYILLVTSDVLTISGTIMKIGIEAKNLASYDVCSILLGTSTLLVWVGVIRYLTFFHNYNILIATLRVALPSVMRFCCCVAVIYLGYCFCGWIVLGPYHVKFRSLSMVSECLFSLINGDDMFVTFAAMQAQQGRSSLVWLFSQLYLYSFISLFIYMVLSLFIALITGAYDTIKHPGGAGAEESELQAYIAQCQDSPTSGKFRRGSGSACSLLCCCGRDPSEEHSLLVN

## CCCCCCCC[C@H](SCCCCCC)C(=O)Nc1c(SC)cc(C)nc1SC [CP-113,818]
APP
  Aβ: reduces Aβ

## CC(C)(C)NCC(O)c1cc(Cl)c(N)c(Cl)c1 (stereo not drawn) [Clenbuterol]
APP; Chai, G-s. et al.
  Thr668p (APP phosphorylated at Thr668): reduced Thr668p
  α-secretase: increased α-secretase
APP
  Aβ: decreased Aβ

## O=C1[C@H](CC[C@H](O)c2ccc(F)cc2)[C@@H](c2ccc(O)cc2)N1c1ccc(F)cc1 [Ezetimibe]
AD mice
  cognition / memory: improves memory in AD mice

## O=C(/C=C/c1ccc(/C=C/C(=O)Nc2ccc(C3=NCCN3)cc2)cc1)Nc1ccc(C2=NCCN2)cc1 [GW4869]
PS-DKO cells [1]
  number of lipid droplets (LDs): reduced the accumulation of lipid droplets in PS-DKO cells to near-control levels; also recorded: reduced lipid droplet formation

## Cc1ccc(NC(=O)c2ccc(CN3CCN(C)CC3)cc2)cc1Nc1nccc(-c2cccnc2)n1 [Gleevec, imatinib mesylate]
PS-DKO cells [1]
  number of lipid droplets (LDs): significant reduction of LDs

## CC1CC(C)(C)N(C(=O)CN2C(=O)c3ccccc3C2=O)c2ccccc21 (stereo not drawn) [ML-SA1]
TRPML1
  TRPML1-mediated lysosomal Ca2+ release: enhances TRPML1-mediated lysosomal Ca^2+ release
  cholesterol: reduces cholesterol

## O=C(O)CCCc1ccccc1 [PBA, phenylbutyric acid]
APP; reference [1]
  α- and γ-cleavage of APP: stimulates both α- and γ-cleavage of APP
AD mice
  cholesterol defects: rescues cholesterol defects
  cognition / memory: rescues cholesterol defects [4-6] and cognition

## COCCOc1ccc(N2CCN(CCn3ncc4c3nc(N)n3nc(-c5ccco5)nc43)CC2)cc1 [Preladenant]
γ-secretase
  Aβ42: increased Aβ42
  γ-secretase activity: increased γ-secretase activity

## CC(C)C[C@H](CC(=O)NO)C(=O)N[C@@H](Cc1ccc2ccccc2c1)C(=O)N[C@@H](C)C(=O)NCCN [TAPI-1]
PS-DKO cells [2]
  mitochondrial respiration (initial oxygen consumption rate, OCR): unaffected

## COc1ccc(N2CCOCC2)c2sc(NC(=O)N3CCC(C)(O)CC3)nc12 [Tozadenant]
γ-secretase
  Aβ42: increased Aβ42
  γ-secretase activity: increased γ-secretase activity

## CC(C)=CCC/C(C)=C/COc1ccc2ccc(=O)oc2c1 [auraptene, 7-geranyloxycoumarin]
[3]
  memory: enhances memory

## CNCCCN1c2ccccc2CCc2ccccc21 [desipramine]
PS-DKO cells [1]
  number of lipid droplets (LDs): reduced the accumulation of lipid droplets in PS-DKO cells to near-control levels; also recorded: reduced lipid droplet formation
Aβ42:Aβ40 ratio
  Aβ42:Aβ40 ratio: reduced the Aβ42:Aβ40 ratio
Aβ42:Aβ40 ratio; listed as Desipramine
  Aβ42:Aβ40 ratio: significantly reduced the Aβ42:Aβ40 ratio

## CCCCCCC(=O)CCCCCC/C=C/C[C@@H](O)[C@H](O)[C@@](N)(CO)C(=O)O [myriocin]
PS-DKO cells [2]
  mitochondrial respiration (initial oxygen consumption rate, OCR): reversed the respiratory defect; also recorded: rescued the bioenergetic defect; also recorded: reversed the bioenergetic deficits in these cells
[4]; mitochondria from PS-DKO cells incubated with BI or myriocin
  activity of supercomplexes I+III+IV, I+III and III+IV (in-gel complex I and IV activity): rescued
[4]; mitochondria from PS-DKO cells, anti-complex I and III antibodies
  assembly of respiratory supercomplexes (blue-native PAGE western blot): increases the assembly of supercomplexes I+III and I+III+IV
PS-DKO cells [5]
  ceramide levels: significant reductions in ceramide content
  sphingomyelin levels: slight decreases in sphingomyelin

## CCCCCCCC/C=C\CCCCCCCC(=O)ON1C(=O)CC(S(=O)(=O)O)C1=O (stereo not drawn) [sulfo-N-succinimidyl oleate]
[6]
  free cholesterol levels (filipin staining): reduces cholesterol levels in presenilin-mutant cells; also recorded: equally marked reduction in cellular free cholesterol

## Aβ42 oligomers: oligomers formed from synthetic Aβ42 peptide, added at 5 or 10 μM
APP-DKO cells
  mitochondrial respiration (OCR): slightly decreased
APP-DKO cells; listed as Aβ oligomers
  mitochondrial respiration (OCR): had little effect on respiration

## cyclosporin A
[6]
  free cholesterol levels (filipin staining): reduces cholesterol levels in presenilin-mutant cells; also recorded: the increased level of cholesterol seen in PS-mutant cells was reversed
